Measured values reported in article PMC5030486, “Neprilysin is a Mediator of Alternative Renin-Angiotensin-System Activation in the Murine and Human Kidney” (Scientific Reports, 2016).
Ends that are not written are not given here. Peptide text beside a SMILES is read from it. * marks the point of attachment. Cbz = O=C(OCc1ccccc1)*

What was measured:
[1] = test system: Ang-(1-7) and Ang II formation from Ang I (NEP, PEP, ACE) in murine kidney homogenates; type: biochemical, mouse
Description: (§1) Angiotensin peptide quantification by liquid chromatography tandem-mass spectrometry analysis (LC-MS/MS) was performed by Attoquant Diagnostics GmbH (Vienna, Austria) as previously described.

[2] = target: T1, NEP (Mus musculus, UniProt Q61391); assay: MALDI-Imaging of Ang I to Ang-(1-7) turnover in murine kidney cryo-sections; type: biochemical
T1 construct: Consecutive tissue sections were prepared from fresh frozen kidneys (n = 4); from tissue; host or cells: murine kidney cryo-sections (fresh frozen)
T1 sequence (Q61391 1-750): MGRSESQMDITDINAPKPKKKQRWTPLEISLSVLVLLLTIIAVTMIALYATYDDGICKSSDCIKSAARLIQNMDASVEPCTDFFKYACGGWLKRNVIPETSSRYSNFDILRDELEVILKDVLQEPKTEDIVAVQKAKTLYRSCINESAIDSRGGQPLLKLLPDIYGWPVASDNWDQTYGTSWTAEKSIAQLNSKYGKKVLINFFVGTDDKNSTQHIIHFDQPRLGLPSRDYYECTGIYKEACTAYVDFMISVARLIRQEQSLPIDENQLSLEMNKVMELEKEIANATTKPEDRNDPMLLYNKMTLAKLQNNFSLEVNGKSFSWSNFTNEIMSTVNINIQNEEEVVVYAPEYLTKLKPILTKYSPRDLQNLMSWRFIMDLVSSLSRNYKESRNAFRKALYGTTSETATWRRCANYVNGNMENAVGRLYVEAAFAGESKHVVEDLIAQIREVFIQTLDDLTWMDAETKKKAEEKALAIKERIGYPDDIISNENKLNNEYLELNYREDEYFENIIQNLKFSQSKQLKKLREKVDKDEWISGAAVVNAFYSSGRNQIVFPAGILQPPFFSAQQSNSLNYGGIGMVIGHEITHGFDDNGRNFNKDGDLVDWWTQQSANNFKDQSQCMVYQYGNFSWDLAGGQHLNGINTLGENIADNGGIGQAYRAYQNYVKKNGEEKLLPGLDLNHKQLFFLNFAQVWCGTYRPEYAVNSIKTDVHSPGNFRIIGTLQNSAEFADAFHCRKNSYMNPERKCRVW
Description: Consecutive tissue sections were prepared from fresh frozen kidneys (n = 4) as previously described[37] and incubated with 772 μM Ang I at 37 °C for 5 min. […] The imaging technique is described in detail elsewhere.

[3] = test system: Ang-(1-7) and Ang II formation from Ang I (NEP, PEP, ACE, chymase) in human kidney homogenates
Description: (§2) This study was approved by the Ethics Committee of the Medical University of Vienna (EK #1496/2014) and was performed in accordance to the good clinical practice guidelines. Written informed consent was obtained before biopsies were taken perioperative from 5 kidney donors in 2014. Renal biopsies were either snap frozen in liquid nitrogen for angiotensin metabolism analysis or fixed in formalin for histological examination.
Metabolic RAS analysis was performed by Attoquant Diagnostics GmbH, Vienna, Austria. Renal biopsies of mice and humans were extracted and homogenized in phosphate-buffered saline (PBS) using low-energy sonication. The metabolism of spiked Ang I, Ang II (Fisher Scientific) or recombinant murine AGT (Sino Biological Inc.) for the renin activity assay, respectively, was assayed in homogenates after ex vivo incubation at 37 °C in presence or absence of specific enzyme inhibitors. […] Aminopeptidase Inhibitor (10 μM, Sigma-Aldrich) was added to all samples.
The enzyme activity was calculated by determining the inhibitor sensitive part of product formation in incubated samples and is presented as a product formation in ng of the corresponding angiotensin product per μg protein per hour. In order to proof linearity of the assay in dependence of enzyme abundance, Ang I and Ang II metabolism were assayed in serial diluted kidney homogenates (Supplementary Fig. 6). All experiments were performed in the linear range of the assay.
as §1

[4] = test system: ACE; details: cited from earlier work
[5] = test system: CES1; details: liver; cited from earlier work
[6] = test system: Ang-(1-7) formation from Ang II (ACE2, PCP) in human kidney homogenates; assay: Ang II turnover to Ang-(1-7) in human kidney biopsy homogenates; type: biochemical; details: human kidney biopsy homogenate, inhibitor sensitive formation rate of Fig. 2d, mean ± s.d., n = 5
Description: as §2
Metabolic RAS analysis was performed by Attoquant Diagnostics GmbH, Vienna, Austria. Renal biopsies of mice and humans were extracted and homogenized in phosphate-buffered saline (PBS) using low-energy sonication. The metabolism of spiked Ang I, Ang II (Fisher Scientific) or recombinant murine AGT (Sino Biological Inc.) for the renin activity assay, respectively, was assayed in homogenates after ex vivo incubation at 37 °C in presence or absence of specific enzyme inhibitors. […]
The enzyme activity was calculated by determining the inhibitor sensitive part of product formation in incubated samples and is presented as a product formation in ng of the corresponding angiotensin product per μg protein per hour. […]
as §1

[7] = test system: murine kidney angiotensin levels; assay: Renal angiotensin metabolites in mice treated i.p. with NEP inhibitor; type: in vivo, mouse; details: 50 mg/kg i.p.
Description: (§3) 10 to 12 weeks old female wild-type with C57BL/6j background were maintained at the animal care facility of the University Duesseldorf, Germany under a 12 h light/dark cycle, normal chew (SNIFF, Soest) and tap water ad libitum. Vehicle (50% DMSO) or NEP-inhibitor (LBQ657 (Sigma-Aldrich): 50 mg/kg) were administrated i.p. 4 hours prior to kidney and heparin plasma sampling. Kidneys were obtained as given above, while heparin plasma was incubated for 30 min at 37 °C for equilibrium analysis, stabilized[38] and stored at −80 °C until shipment.
as §1

[8] = test system: murine plasma equilibrium angiotensin levels; assay: Equilibrium plasma angiotensin metabolites in mice treated i.p. with NEP inhibitor; type: in vivo, mouse; details: 50 mg/kg i.p., 4 hours, mean ± s.e.m., n = 5
Description: as §3, §1

[9] = test system: Ang-(1-7) formation from Ang II (ACE2, PCP) in murine kidney homogenates; assay: Ang II turnover to Ang-(1-7) in murine kidney homogenates with and without enzyme inhibitors; type: biochemical, mouse; details: Ang II spike, 37 °C, LC-MS/MS, n = 4
Description: as §1

[10] = 4 hours prior to sampling, LC-MS/MS, mean ± s.e.m., n = 5
[11] = ratio of renal levels, 4 hours, mean ± s.e.m., n = 5
[12] = heparin plasma incubated 30 min at 37 °C, LC-MS/MS
[13] = ratio of equilibrium plasma levels
[14] = mouse kidney homogenate, Ang I spike, 37 °C, lisinopril 10 μM, LC-MS/MS, n = 4

With O=C(O)CNC(=O)C(CS)Cc1ccccc1 (racemic) [DL-thiorphan] the “Reduction of Ang-(1-7) formation from Ang I” value ([1]; mouse kidney homogenate, Ang I spike, 37 °C, DL-thiorphan 100 μM used only in combination with lisinopril 10 μM, LC-MS/MS) was 75.2 ± 1.8%, the “Effect on turnover from Ang I to Ang-(1-7)” value ([1]; mouse kidney homogenate, DL-thiorphan 100 μM with lisinopril 10 μM, n = 4) was “reduced significantly” and the “Effect on Ang-(1-7) formation from Ang I, MALDI-Imaging intensity” value ([2]; murine kidney cryo-sections, 772 μM Ang I, 37 °C, 5 min, 100 μM DL-thiorphan in presence of 10 μM lisinopril, n = 4, p = 0.045 vs. 10 μM lisinopril) was “significant reduction of Ang-(1-7) formation from Ang I”. For the same molecule, the “Effect on turnover from Ang I to Ang-(1-7)” value ([3]; human kidney biopsy homogenate, DL-thiorphan 100 μM with lisinopril 10 μM, n = 5) was “reduced significantly” and the ACE inhibitory activity [4] was “weak ACE inhibitory activity”.
In the case of CCOC(=O)[C@H](C)C[C@@H](Cc1ccc(-c2ccccc2)cc1)NC(=O)CCC(=O)O [AHU-377], the “Activation of the prodrug” value [5] is given as “physiologically activated in the liver by CES1”.
In the case of CC[C@H](C)[C@H](NC(=O)[C@H](Cc1ccc(O)cc1)NC(=O)[C@@H](NC(=O)[C@H](CCCNC(=N)N)NC(=O)[C@@H](N)CC(=O)O)C(C)C)C(=O)N[C@@H](Cc1cnc[nH]1)C(=O)N1CCC[C@H]1C(=O)N[C@@H](Cc1ccccc1)C(=O)O [Ang II, angiotensin II], the “Enzymatic contribution of ACE2, Ang II to Ang-(1-7)” value [6] is reported as 88.2 ± 4.3%.
With C[C@H](C[C@@H](Cc1ccc(-c2ccccc2)cc1)NC(=O)CCC(=O)O)C(=O)O [LBQ657] the “Renal Ang I” value [7, 10] was 277 ± 31 pg/g, the “Renal Ang II” value [7, 10] was 642 ± 99 pg/g and the “Renal Ang-(1-7)” value [7, 10] was 35 ± 4 pg/g. For the same molecule, the “Renal Ang-(1-9)” value [7, 10] was 162 ± 10 pg/g, the “Renal Ang-(2-8)” value [7, 10] was 195 ± 28 pg/g and the “Renal Ang-(2-10)” value [7, 10] was 89 ± 16 pg/g. The “Reduction of Ang-(1-7) levels in the murine kidney” value ([7]; 4 hours prior to sampling, LC-MS/MS, p = 0.026) was 53.1 ± 10.6%, the “Renal Ang-(1-7)/Ang I (x100)” value [7, 11] was 13.4 ± 2.0 and the “Renal Ang-(1-7)/Ang II (x100)” value [7, 11] was 6.1 ± 1.2. For the same molecule, the “Equilibrium plasma Ang I” value [8, 12] was 970 ± 341 pg/mL, the “Equilibrium plasma Ang II” value [8, 12] was 1423 ± 540 pg/mL and the “Equilibrium plasma Ang-(1-5)” value [8, 12] was 73 ± 34 pg/mL. The “Equilibrium plasma Ang-(1-7)” value [8, 12] was 20 ± 7 pg/mL, the “Equilibrium plasma Ang-(2-8)” value [8, 12] was 269 ± 91 pg/mL and the “Equilibrium plasma Ang-(3-8)” value [8, 12] was 114 ± 36 pg/mL. For the same molecule, the “Equilibrium plasma Ang-(1-7)/Ang I (x100)” value [8, 13] was 1.8 ± 0.2 and the “Equilibrium plasma Ang-(1-7)/Ang II (x100)” value [8, 13] was 1.5 ± 0.2.
For CC(C)C[C@H](N[C@@H](Cc1cncn1Cc1cc(Cl)cc(Cl)c1)C(=O)O)C(=O)O [MLN-4760], the “Effect on Ang-(1-7) formation from Ang II, ACE2 KO kidney” value ([9]; ACE2 KO mouse kidney homogenate in PBS, MLN-4760 10 μM, aminopeptidase inhibitor 10 μM in all samples) was “no effect” and the “Effect on Ang-(1-7) formation from Ang II, wild-type kidney” value ([9]; wild-type mouse kidney homogenate in PBS, MLN-4760 10 μM) was “reduced Ang-(1-7) formation in wild-type mice to the level of ACE2 KOs”.
With O=C[C@@H]1CCCN1C(=O)[C@@H]1CCCN1C(=O)OCc1ccccc1 [ZPP, N-benzyloxycarbonyl-prolyl-prolinal] (Cbz-Pro-Pro-aldehyde) the “Effect on Ang-(1-7) formation from Ang I, ZPP on top of lisinopril and DL-thiorphan” value ([1]; mouse kidney homogenate, Ang I spike, 37 °C, ZPP 20 μM, LC-MS/MS, n = 4) was “further significantly reduced Ang-(1-7) formation” and the “Effect on Ang-(1-7) formation from Ang II, ZPP added to MLN-4760” value ([9]; mouse kidney homogenate, ZPP 20 μM in addition to MLN-4760 10 μM) was “abolished Ang-(1-7) formation completely”.
For CC(C)C[C@H](NC(=O)[C@@H](NC(=O)N[C@@H](Cc1ccccc1)C(=O)O)[C@@H]1CCN=C(N)N1)C(=O)N[C@H](C=O)Cc1ccccc1 [chymostatin], the “Effect on ACE independent Ang II formation from Ang I” value ([3]; human kidney biopsy homogenate, Ang I spike, 37 °C, chymostatin 10 μM, LC-MS/MS, n = 5) was “At least a part of ACE independent Ang II formation was blocked”.
With NCCCC[C@H](N[C@@H](CCc1ccccc1)C(=O)O)C(=O)N1CCC[C@H]1C(=O)O [lisinopril] the “Effect on Ang II formation from Ang I” value [1, 14] was “efficiently blocked”, the “Effect on Ang-(1-7) formation from Ang I” value [1, 14] was “remained unaffected” and the “Ang-(1-7) signal with increasing inhibitor concentration” value ([2]; murine kidney slices incubated with Ang I, lisinopril 0 μM–10 μM, MALDI-Imaging) was “concentration dependent increase of Ang-(1-7)”. For the same molecule, the “Effect on Ang II formation from Ang I” value ([3]; human kidney biopsy homogenate, Ang I spike, 37 °C, lisinopril 10 μM, LC-MS/MS, n = 5) was “not able to completely abolish Ang II formation”.
With DRVYIHPFHL [Ang I, angiotensin I] the “Enzymatic contribution of NEP, Ang I to Ang-(1-7)” value [1] was 50 ± 1%, the “Enzymatic contribution of PEP, Ang I to Ang-(1-7)” value [1] was 23 ± 1% and the “Share of Ang I converted directly to Ang-(1-7)” value [1] was 73.4 ± 2.1%. The “Share of Ang I metabolized to Ang II (ACE)” value [1] was 26.6 ± 2.1%, the “Enzymatic contribution of ACE, Ang I to Ang II” value [3] was 25 ± 7% and the “Enzymatic contribution of NEP, Ang I to Ang-(1-7)” value [3] was 63 ± 10%. For the same molecule, the “Enzymatic contribution of PEP, Ang I to Ang-(1-7)” value [3] was 10 ± 3%, the “Enzymatic contribution of chymase, Ang I to Ang II” value [3] was 2 ± 2% and the “Share of Ang I converted to Ang II” value [3] was 27 ± 9%. For the same molecule, the “Share of Ang I converted to Ang-(1-7)” value [3] was 73 ± 9%.
